# Assay results reported in ChEMBL document CHEMBL1130861, “Synthesis and proteinase inhibitory properties of diphenyl phosphonate analogues of aspartic and glutamic acids” (1998).
# Tests used:
# [1] = target: Granzyme B (Homo sapiens) (UniProt P10144); assay: Apparent second-order rate constant was determined by the inhibition of Granzyme B with the compound at the concentration 150 mM; ki/Ki(1/M*s), Not inhibited
# Staphylococcus aureus = assay: Apparent second-order rate constant was determined by the inactivation of Staphylococcus aureus V8 proteinase with the compound at the concentration 100 mM(pH 7.4); ki/Ki(1/M*s); type: functional
# Chain of Granzyme B (Homo sapiens) (P10144 whole entry): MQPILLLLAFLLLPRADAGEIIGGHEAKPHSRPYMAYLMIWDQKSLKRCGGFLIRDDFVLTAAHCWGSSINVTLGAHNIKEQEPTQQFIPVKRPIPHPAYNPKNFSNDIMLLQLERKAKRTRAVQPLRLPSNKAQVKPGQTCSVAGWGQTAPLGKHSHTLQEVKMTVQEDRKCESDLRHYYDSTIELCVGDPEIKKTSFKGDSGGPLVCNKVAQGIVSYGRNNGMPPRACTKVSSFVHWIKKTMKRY
Structure (SMILES),Activity [1],Activity (Staphylococcus aureus)
CC(=O)N[C@H](CCC(=O)O)P(=O)(Oc1ccccc1)Oc1ccccc1,No inhibition,5.3
CC(=O)N[C@H](CC(=O)O)P(=O)(Oc1ccccc1)Oc1ccccc1,No inhibition,5
